Experimental data as given in ChEMBL document CHEMBL1201862, “PubChem BioAssay data set” (2004).
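The compound was tested at five concentrations on cells cultured in 96-well plates, with a 48-hour exposure period. Abbreviation: GI50, concentration required for 50% inhibition of growth.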 Calls of active or inactive are those of the source. No stated cut-off is given here; in the data, active = GI50 up to about 1.1 µM and inactive = higher.

Tests used:
Experiment in all cases: NCI-60 cell line screen, 48 h
K562 = test system: K562
HL-60 = test system: HL-60
SNB-19 = test system: SNB-19
SF-268 = test system: SF-268
MCF7 = test system: MCF7
MOLT-4 = test system: MOLT-4
NCI-H460 = test system: NCI-H460
IGROV-1 = test system: IGROV-1
RXF 393 = test system: RXF 393
SN12C = test system: SN12C
SK-MEL-28 = test system: SK-MEL-28
NCI-H522 = test system: NCI-H522
NCI-H23 = test system: NCI-H23
OVCAR-3 = test system: OVCAR-3
EKVX = test system: EKVX
SF-295 = test system: SF-295
SW-620 = test system: SW-620
U-251 = test system: U-251
M14 = test system: M14
ACHN = test system: ACHN

| SMILES | GI50 (K562) | GI50 (HL-60) | GI50 (SNB-19) | GI50 (SF-268) | GI50 (MCF7) | GI50 (MOLT-4) | GI50 (NCI-H460) | GI50 (IGROV-1) | GI50 (RXF 393) | GI50 (SN12C) | GI50 (SK-MEL-28) | GI50 (NCI-H522) | GI50 (NCI-H23) | GI50 (OVCAR-3) | GI50 (EKVX) | GI50 (SF-295) | GI50 (SW-620) | GI50 (U-251) | GI50 (M14) | GI50 (ACHN) |
| --- | --- | --- | --- | --- | --- | --- | --- | --- | --- | --- | --- | --- | --- | --- | --- | --- | --- | --- | --- | --- |
| CN1CCN(P2(=S)Oc3ccc4ccccc4c3-c3c(ccc4ccccc34)O2)CC1 | 20.7 µM (inactive) | 13.1 µM (inactive) | 39.6 µM (inactive) | 38.4 µM (inactive) | 13.6 µM (inactive) | 15.1 µM (inactive) | 19.5 µM (inactive) | 53.1 µM (inactive) | 25.6 µM (inactive) | 33.5 µM (inactive) | 41.1 µM (inactive) | 24.2 µM (inactive) | 37.5 µM (inactive) | 27.9 µM (inactive) | 29.6 µM (inactive) | 34.9 µM (inactive) | 39 µM (inactive) | 32.7 µM (inactive) |  |  |
| CC(C)=CCC/C(C)=C/CCC1(C)C=Cc2c(c3ccccc3oc2=O)O1 (stereo not given) | 23.6 µM (inactive) | 23.8 µM (inactive) | 20.5 µM (inactive) | 20.6 µM (inactive) | 16.5 µM (inactive) | 20.6 µM (inactive) | 15.8 µM (inactive) | 16.4 µM (inactive) | 3.71 µM (inactive) | 16.8 µM (inactive) | 16.1 µM (inactive) | 14.7 µM (inactive) | 14.8 µM (inactive) | 18.1 µM (inactive) | 18.5 µM (inactive) | 18.8 µM (inactive) | 19.4 µM (inactive) | 15.3 µM (inactive) |  |  |
| CCSc1nc(N/N=C/c2cccs2)c2cnn(CO)c2n1 | 4.13 µM (inactive) | 5.15 µM (inactive) | 10.8 µM (inactive) | 6.22 µM (inactive) | 3.59 µM (inactive) |  | 5.11 µM (inactive) | 2.61 µM (inactive) | 3.66 µM (inactive) | 6.44 µM (inactive) | 14.9 µM (inactive) | 3.71 µM (inactive) | 7.05 µM (inactive) | 5.86 µM (inactive) | 9.08 µM (inactive) | 8.13 µM (inactive) | 4.42 µM (inactive) | 6.85 µM (inactive) | 6.11 µM (inactive) | 6.07 µM (inactive) |
| c1ccc(COc2nc3cc(C45CC6CC(CC(C6)C4)C5)ccc3[nH]2)cc1 | 1.19 µM (inactive) | 9.38 µM (inactive) | 24.8 µM (inactive) | 31.3 µM (inactive) | 4.7 µM (inactive) | 3.35 µM (inactive) | 9.2 µM (inactive) | 13.6 µM (inactive) | 11.3 µM (inactive) | 18.5 µM (inactive) | 17.1 µM (inactive) | 3.42 µM (inactive) | 6.3 µM (inactive) | 22.9 µM (inactive) | 13.5 µM (inactive) | 6.7 µM (inactive) | 21.4 µM (inactive) | 8.87 µM (inactive) | 17.2 µM (inactive) | 14.6 µM (inactive) |
| CC1=C(C(=O)OCCc2ccc([N+](=O)[O-])cc2)C(c2cccc([N+](=O)[O-])c2)C(C(=O)OC(C)C)=C(C)N1 (stereo not given) | 3.52 µM (inactive) | 3.52 µM (inactive) | 12.7 µM (inactive) | 6.4 µM (inactive) | 3.72 µM (inactive) | 2.63 µM (inactive) | 3.72 µM (inactive) | 9.53 µM (inactive) | 2.91 µM (inactive) | 11.8 µM (inactive) | 80 µM (inactive) | 1.87 µM (inactive) | 4.3 µM (inactive) | 7.59 µM (inactive) | 5.43 µM (inactive) | 4.19 µM (inactive) | 6.68 µM (inactive) | 5.69 µM (inactive) | 3.7 µM (inactive) | 4.82 µM (inactive) |
| COC1=C2CC(C)CC(OC)C(O)C(C)/C=C(\C)C(OC(N)=O)C(OC)/C=C\C=C(/C)C(=O)NC(=C(/C=N/C(C)(C)C)C1=O)C2=O (stereo not given) | 0.82 µM (active) | 0.479 µM (active) | 4.85 µM (inactive) | 6.3 µM (inactive) | 2.89 µM (inactive) | 3.44 µM (inactive) | 2.44 µM (inactive) | 13.1 µM (inactive) | 0.351 µM (active) | 2.04 µM (inactive) | 4.97 µM (inactive) | 0.279 µM (active) | 0.849 µM (active) | 0.585 µM (active) | 3.64 µM (inactive) | 5.02 µM (inactive) | 3.73 µM (inactive) | 1.43 µM (inactive) |  |  |
| CCOC(=O)/C=C/c1c(C)[nH]c(=O)[nH]c1=O | > 250 µM (inactive) | > 250 µM (inactive) | > 250 µM (inactive) | > 250 µM (inactive) | 244 µM (inactive) | > 250 µM (inactive) | > 250 µM (inactive) | > 250 µM (inactive) | > 237 µM (inactive) | > 250 µM (inactive) | > 250 µM (inactive) | 102 µM (inactive) | > 250 µM (inactive) | > 242 µM (inactive) | > 250 µM (inactive) | > 250 µM (inactive) | > 250 µM (inactive) | > 250 µM (inactive) |  |  |
| C/C(=N\NS(=O)(=O)c1ccccc1)c1ccccc1 | > 100 µM (inactive) | > 100 µM (inactive) | > 100 µM (inactive) | > 100 µM (inactive) | > 94 µM (inactive) | > 100 µM (inactive) | > 100 µM (inactive) | > 100 µM (inactive) | > 100 µM (inactive) | > 100 µM (inactive) | > 100 µM (inactive) | > 100 µM (inactive) | > 100 µM (inactive) | > 100 µM (inactive) | > 100 µM (inactive) | > 100 µM (inactive) | > 100 µM (inactive) | > 100 µM (inactive) |  |  |
| Oc1ccc2ccccc2c1/N=N/c1cccc2ccccc12 | > 100 µM (inactive) | > 100 µM (inactive) | 47.6 µM (inactive) | 55.5 µM (inactive) | > 100 µM (inactive) | > 100 µM (inactive) | > 100 µM (inactive) | 49.9 µM (inactive) | 65.3 µM (inactive) | > 100 µM (inactive) |  | 52.4 µM (inactive) | > 100 µM (inactive) | > 100 µM (inactive) | 84.9 µM (inactive) | > 100 µM (inactive) | > 100 µM (inactive) | 50.6 µM (inactive) | > 100 µM (inactive) | > 100 µM (inactive) |
| COc1cc(O)cc(/C=C/c2ccc(O)cc2)c1 | 28.2 µM (inactive) | 27.2 µM (inactive) | 36.6 µM (inactive) | 49.1 µM (inactive) | 49.2 µM (inactive) | 36 µM (inactive) | 44.7 µM (inactive) | 53.3 µM (inactive) | 72.8 µM (inactive) | 27.5 µM (inactive) | > 100 µM (inactive) | 30.1 µM (inactive) | 26.7 µM (inactive) | 41.3 µM (inactive) | 28.4 µM (inactive) | 25.7 µM (inactive) | 48.8 µM (inactive) | 22.4 µM (inactive) | 24.3 µM (inactive) | 6.31 µM (inactive) |
| C=C(C)C(=O)O[C@H]1CC2=C[C@@H](C[C@@]3(C)O[C@@H]3[C@H]3OC(=O)C(=C)[C@@H]31)OC2=O [ELEPHANTOPIN] |  | 0.486 µM (active) | 13.3 µM (inactive) | 0.818 µM (active) | 1.14 µM (inactive) | 0.412 µM (active) | 4.86 µM (inactive) | 4.65 µM (inactive) | 0.369 µM (active) | 4.03 µM (inactive) | 1.71 µM (inactive) | 0.593 µM (active) | 1.87 µM (inactive) | 1.2 µM (inactive) | 2.08 µM (inactive) | 5.57 µM (inactive) | 0.695 µM (active) | 6.49 µM (inactive) |  |  |
